Assay results from paper PMC4831212 (The Biochemical journal, 2013).

How the values were obtained:
Experiment in all cases: FRET lipid mixing of SNARE liposomes
Type in all cases: biochemical
Conditions in all cases: 37°C; 10 µM polyphenol (as in Figure 2)
SNAP-23/Syn4/VAMP8 = target: T1, SNAP-23/Syn4/VAMP8 (Rattus norvegicus, UniProt O70377+Q08850+Q9WUF4)
T1 sequence (O70377 1-210): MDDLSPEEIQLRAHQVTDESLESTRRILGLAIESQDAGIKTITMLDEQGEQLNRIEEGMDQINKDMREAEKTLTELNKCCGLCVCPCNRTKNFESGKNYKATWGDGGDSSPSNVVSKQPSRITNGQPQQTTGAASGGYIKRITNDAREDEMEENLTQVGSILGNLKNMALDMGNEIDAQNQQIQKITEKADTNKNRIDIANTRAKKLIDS
T1 sequence (Q08850 1-298): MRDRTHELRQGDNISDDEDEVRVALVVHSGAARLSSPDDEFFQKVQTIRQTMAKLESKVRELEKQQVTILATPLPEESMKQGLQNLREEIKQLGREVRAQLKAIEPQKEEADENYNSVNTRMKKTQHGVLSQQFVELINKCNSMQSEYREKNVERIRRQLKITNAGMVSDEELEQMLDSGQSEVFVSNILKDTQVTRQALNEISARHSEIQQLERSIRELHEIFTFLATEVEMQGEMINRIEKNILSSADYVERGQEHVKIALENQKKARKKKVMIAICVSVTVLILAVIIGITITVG
T1 sequence (Q9WUF4 1-100): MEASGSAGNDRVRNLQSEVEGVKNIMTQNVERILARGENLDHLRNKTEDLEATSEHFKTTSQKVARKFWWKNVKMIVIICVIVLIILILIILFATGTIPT

SNAP-23/Syn4/VAMP2 [1] = target: T2, SNAP-23/Syn4/VAMP2 (Rattus norvegicus, UniProt O70377+P63045+Q08850)
SNAP-23/Syn4/VAMP2 [2] = target: T2, SNAP-23/Syn4/VAMP2; remark: listed apart in the source

T2 sequence (P63045 2-116, one chain of several): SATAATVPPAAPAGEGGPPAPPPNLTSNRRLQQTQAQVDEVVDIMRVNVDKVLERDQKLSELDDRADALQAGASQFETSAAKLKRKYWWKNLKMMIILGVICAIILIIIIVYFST

SMILES	% inhibition (SNAP-23/Syn4/VAMP8)	% inhibition (SNAP-23/Syn4/VAMP2 [2])	% inhibition (SNAP-23/Syn4/VAMP2 [1])
C[C@@H]1O[C@@H](OC[C@H]2O[C@@H](Oc3c(-c4ccc(O)c(O)c4)oc4cc(O)cc(O)c4c3=O)[C@H](O)[C@@H](O)[C@@H]2O)[C@H](O)[C@H](O)[C@H]1O [RT, rutin]			did not inhibit SNAP-23/Syn4/VAMP8- driven fusion, but did inhibit SNAP-23/Syn4/VAMP2-driven fusion
O=C(O)/C=C/c1ccccc1 [TC, trans-cinnamic acid]			these polyphenols robustly inhibited SNAP-23/Syn4/VAMP2- driven fusion
COc1cc2c(c(OC)c1OC)-c1c(cc3c(c1OC)OCO3)CC(C)C(C)C2 (centres unmarked) [GN, gomisin N]			these polyphenols robustly inhibited SNAP-23/Syn4/VAMP2- driven fusion

Now from value to compound, other results behind:

% inhibition (SNAP-23/Syn4/VAMP8)	% inhibition (SNAP-23/Syn4/VAMP2 [2])	SMILES	% inhibition (SNAP-23/Syn4/VAMP2 [1])
~ 60%		Oc1cc(O)c2cc(O)c(-c3cc(O)c(O)c(O)c3)[o+]c2c1 [DL, delphinidin]	
75-90%	75-90%	O=c1c(O)c(-c2cc(O)c(O)c(O)c2)oc2cc(O)cc(O)c12 [MR, myricetin]	
~ 90%	~ 40%	O=c1cc(-c2ccc(O)cc2)oc2cc(O)cc(O)c12 [AP, apigenin]	
